Data as given in ChEMBL document CHEMBL1151631, “Plant anticancer agents, XXXIV. Cucurbitacins from Elaeocarpus dolichostylus” (1984).
Converted amounts (≈) assume the structure as drawn. The source made the active and inactive calls. The rule behind the calls is not given here.

Tests used:
[1] = test system: L1210; assay: In vivo cytotoxicity against mouse L1210 cells at 300 to 400 mg/kg relative to control; format: functional, organism-based
[2] = test system: P388; assay: Cytotoxicity against mouse P388 cells; format: functional; conditions: read-out: ED50 (the source's name)
[3] = test system: KB; assay: Cytotoxicity against human KB cells; format: functional; conditions: read-out: ED50 (the source's name)

SMILES | Activity [1] | EC50 [2] | EC50 [3]
C[C@@H]1CC=CC2=C1C(=O)[C@H]1[C@H](CCN3CCC[C@H]13)O2 | inactive |  | 
Cc1cccc2c1C(=O)C1[C@H]3CCCN3CC[C@H]1O2 (some centres undefined) | inactive |  | 
Cc1cccc2c1C(=O)[C@H]1[C@H](CCN3CCC[C@H]13)O2 | inactive |  | 
CC(C)(O)CCC(=O)[C@](C)(O)[C@H]1[C@H](O)C[C@@]2(C)[C@@H]3CC=C4[C@@H](C[C@H](O)[C@@H](O)C4(C)C)[C@]3(C)C(=O)C[C@]12C |  | > 50 µg/mL | > 50 µg/mL
CC(C)(O)/C=C/C(=O)[C@](C)(O)[C@H]1[C@H](O)C[C@@]2(C)[C@@H]3CC=C4[C@@H](C[C@H](O)[C@@H](O)C4(C)C)[C@]3(C)C(=O)C[C@]12C [CUCURBITACIN F] |  | 0.04 µg/mL (≈ 0.0771 µM) | 0.074 µg/mL (≈ 0.143 µM)
CC(=O)[C@H]1[C@H](O)C[C@@]2(C)[C@@H]3CC=C4[C@@H](C[C@H](O)[C@@H](O)C4(C)C)[C@]3(C)C(=O)C[C@]12C [HEXANORCUCURBITACIN F] |  | > 50 µg/mL | > 50 µg/mL
